This passage reports Emax and EC50 results from patent publication US8629143B2, “Potassium channel modulators” (AbbVie Inc., priority 2009, dated 2014).

Broadly, the EC50 is the concentration needed to bring the measured effect to its halfway point. Low readings indicate a more potent agent, high ones a less potent agent.

For the experiment, the target named is T1, KCNQ 2/3 channels (HEK293 cells stably expressing human KCNQ2 and KCNQ3 subunits) (Homo sapiens, UniProt O43525+O43526).
T1 construct: expressed in transfected cells; host or cells: HEK293
As to the kind of experiment: KCNQ2/3 channel activation, thallium flux FLIPR assay with BTC-AM dye. It counts as cell-based. The conditions noted are these: for Emax: HEK293, maximum response relative to the response produced by 10 μM retigabine (set at 100%), read-out: Max. %; for EC50: HEK293 cells expressing human KCNQ2 and KCNQ3, thallium flux, FLIPR. The method, then:
The following example describes the assay that can be used to identify compounds that activate KCNQ 2/3 channels.
HEK293 cells stably expressing human KCNQ2 and KCNQ3 subunits were seeded in 96-well, black-walled, clear-bottomed, poly-D-lysine coated plates (BD Biosciences, Bedford, Mass.) at a density of 1×10^5 cells per well 24 hours before the assay. On the assay day, BTC-AM dye (Invitrogen, Carlsbad, Calif.) was loaded into the cells by replacing the cell culture medium with 55 μL/well of 3 μg/mL dye in DPBS. Dye loading was allowed to proceed for 2 hours at room temperature and then cells were washed twice with 50 μL/well of assay buffer (in mM: 10 HEPES pH 7.3, 5 glucose, 140 Na-gluconate, 2.5 K-gluconate, 3.6 Ca-gluconate, 2 MgSO4, 0.1 Ouabain) to remove unloaded dye. Cells were incubated in 50 μL of assay buffer before loading onto a FLIPR system (Molecular Devices, Sunnyvale, Calif.). Various concentrations of compounds to be assayed were added to the cells in 50 μL of assay buffer and incubated for 4 minutes. The fluorescence signal was initiated by adding 100 μL of assay buffer containing 6 mM TlNO3 and 10 mM K2SO4. Fluors were excited using the 488-nm line of an argon laser and emission was filtered using a 540±30 nm bandpass filter. Fluorescent signals were recorded for 3 minutes. Sums of the responses over basal responses were plotted versus concentrations of test compounds to obtain an EC50 value. The maximum response for each test compound was determined relative to the response produced by 10 μM retigabine. The maximum response of retigabine at 10 μM was set at 100%.

With `O=C(Cc1ccc(Cl)s1)Nn1nc(C(F)(F)F)c2ccccc2c1=O` [Example 55, 2-(5-chloro-2-thienyl)-N-[1-oxo-4-(trifluoromethyl)phthalazin-2(1H)-yl]acetamide], the Emax was 72% and the EC50 lay within 500 to 1000 nM.

Consider `CC(C)c1nn(NC(=O)CC23CC4CC(CC(C4)C2)C3)c(=O)c2c1C1CCC2CC1` [Example 8, 2-(1-adamantyl)-N-(4-isopropyl-1-oxo-5,6,7,8-tetrahydro-5,8-ethanophthalazin-2(1H)-yl)acetamide], for which the Emax came out at 79% and the EC50 was in the range of 1000 to 10000 nM.

Regarding `O=C(CC1CC2CCC1C2)Nn1nc(-c2ccc(Cl)cc2)c2ccccc2c1=O` (racemic) [Example 113, (±)-2-(exo-bicyclo[2.2.1]hept-2-yl)-N-[4-(4-chlorophenyl)-1-oxophthalazin-2(1H)-yl]acetamide], the Emax worked out at 154% and the EC50 was < 100 nM.

Turning to `O=C(CC12CC3CC(CC(C3)C1)C2)Nn1nc(-c2ccc(Cl)cc2)c2c(F)ccc(F)c2c1=O` [Example 183, 2-(adamantan-1-yl)-N-[4-(4-chlorophenyl)-5,8-difluoro-1-oxophthalazin-2(1H)-yl]acetamide], the Emax stood at 178% and the EC50 lay within 100 to 500 nM.

Consider `O=C(Cc1ccc(Cl)cc1)Nn1nc(-c2cccc(Cl)c2)c2ccccc2c1=O` [Example 127, 2-(4-chlorophenyl)-N-[4-(3-chlorophenyl)-1-oxophthalazin-2(1H)-yl]acetamide], for which the Emax was 101% and the EC50 lay in the range of 100 to 500 nM.

For the compound `COc1ccc(-c2nn(NC(=O)CC34CC5CC(CC(C5)C3)C4)c(=O)c3cc(Br)ccc23)cc1` [Example 174, 2-(adamantan-1-yl)-N-[7-bromo-4-(4-methoxyphenyl)-1-oxophthalazin-2(1H)-yl]acetamide], the Emax turned out to be 20% and the EC50 was > 10000 nM.

Regarding `O=C(Cc1ccc(Cl)cc1)Nn1nc(Cc2ccc(Cl)cc2)c2ccccc2c1=O` [Example 145, N-[4-(4-chlorobenzyl)-1-oxophthalazin-2(1H)-yl]-2-(4-chlorophenyl)acetamide], the Emax came to 101% and the EC50 lay in the range of 100 to 500 nM.

Take `O=C(CC12CC3CC(CC(C3)C1)C2)Nn1nc(-c2cccc(Cl)c2)c2ccccc2c1=O` [Example 126, 2-(adamantan-1-yl)-N-[4-(3-chlorophenyl)-1-oxophthalazin-2(1H)-yl]acetamide]: the Emax stood at 153% and the EC50 is 100 to 500 nM.

As to `O=C(CC12CC3CC(CC(C3)C1)C2)Nn1nc(-c2ccccc2)c2cc(F)ccc2c1=O` [Example 37, 2-(1-adamantyl)-N-(6-fluoro-1-oxo-4-phenylphthalazin-2(1H)-yl)acetamide], the Emax came out at 179% and the EC50 was < 100 nM.

As for `CC(C)(CC(=O)Nn1nc(C(F)(F)F)c2ccccc2c1=O)c1ccc(Cl)cc1` [Example 42, 3-(4-chlorophenyl)-3-methyl-N-[1-oxo-4-(trifluoromethyl)phthalazin-2(1H)-yl]butanamide], the Emax is 103% and the EC50 lay within 100 to 500 nM.

With `Cc1ccc(-c2nn(NC(=O)Cc3ccc(Cl)cc3)c(=O)c3ccccc23)c(C)c1` [Example 161, 2-(4-chlorophenyl)-N-[4-(2,4-dimethylphenyl)-1-oxophthalazin-2(1H)-yl]acetamide], the Emax was 145% and the EC50 lay in the range of 100 to 500 nM.

Turning to `O=C(C[C@@H]1C[C@@H]2CC[C@H]1C2)Nn1nc(-c2ccc(C(F)(F)F)cc2)c2ccccc2c1=O` [Example 147, 2-[(1S,2S,4R)-bicyclo[2.2.1]hept-2-yl]-N-{1-oxo-4-[4-(trifluoromethyl)phenyl]phthalazin-2(1H)-yl}acetamide], the Emax is 154% and the EC50 fell in the range of 100 to 500 nM.

`CC(C)(C)c1nn(NC(=O)CC2CCCC2)c(=O)c2ccccc12` [Example 62, N-(4-tert-butyl-1-oxophthalazin-2(1H)-yl)-2-cyclopentylacetamide]: the Emax was found to be 149% and the EC50 is < 100 nM.

With `O=C(CC1CC2CCC1C2)Nn1nc(-c2ccc(F)cc2)c2ccccc2c1=O` (racemic) [Example 131, (±)-2-(exo-bicyclo[2.2.1]hept-2-yl)-N-[4-(4-fluorophenyl)-1-oxophthalazin-2(1H)-yl]acetamide], the Emax is 150% and the EC50 is < 100 nM.

As to `CC(C)c1nn(NC(=O)Cc2cc(F)cc(F)c2)c(=O)c2ccccc12` [Example 5, 2-(3,5-difluorophenyl)-N-(4-isopropyl-1-oxophthalazin-2(1H)-yl)acetamide], the Emax was determined as 136% and the EC50 was in the range of 100 to 500 nM.

Take `CS(=O)(=O)c1ccc(CC(=O)Nn2nc(C(F)(F)F)c3ccccc3c2=O)cc1` [Example 49, 2-[4-(methylsulfonyl)phenyl]-N-[1-oxo-4-(trifluoromethyl)phthalazin-2(1H)-yl]acetamide]: the Emax came to 3% and the EC50 was > 10000 nM.

As to `Cc1ccc(-c2nn(NC(=O)Cc3cc(F)cc(F)c3)c(=O)c3ccccc23)cc1C` [Example 166, 2-(3,5-difluorophenyl)-N-[4-(3,4-dimethylphenyl)-1-oxophthalazin-2(1H)-yl]acetamide], the Emax was 161% and the EC50 was 100 to 500 nM.

For `O=C(Cc1cc(F)ccc1F)Nn1nc(-c2ccccc2)c2ccccc2c1=O` [Example 27, 2-(2,5-difluorophenyl)-N-(1-oxo-4-phenylphthalazin-2(1H)-yl)acetamide], the Emax turned out to be 92% and the EC50 fell in the range of 500 to 1000 nM.

Consider `CC(C)(CC(=O)Nn1nc(-c2ccc(Cl)cc2)c2ccccc2c1=O)c1ccccc1` [Example 89, N-[4-(4-chlorophenyl)-1-oxophthalazin-2(1H)-yl]-3-methyl-3-phenylbutanamide], for which the Emax worked out at 118% and the EC50 was 100 to 500 nM.

`O=C(CC1(c2ccc(Cl)cc2)CC1)Nn1nc(C(F)(F)F)c2ccccc2c1=O` [Example 39, 2-[1-(4-chlorophenyl)cyclopropyl]-N-[1-oxo-4-(trifluoromethyl)phthalazin-2(1H)-yl]acetamide]: the Emax worked out at 11% and the EC50 was > 10000 nM.

On to `O=C(Cc1cc(F)cc(F)c1)Nn1nc(-c2ccccc2)c2c(c1=O)CCCC2` [Example 186, 2-(3,5-difluorophenyl)-N-(1-oxo-4-phenyl-5,6,7,8-tetrahydrophthalazin-2(1H)-yl)acetamide], for which the Emax was determined as 136% and the EC50 is 100 to 500 nM.

In the case of `O=C(Cc1cc(F)cc(F)c1)Nn1nc(-c2ccccc2)c2ccccc2c1=O` [Example 18, 2-(3,5-difluorophenyl)-N-(1-oxo-4-phenylphthalazin-2(1H)-yl)acetamide], the Emax was determined as 189% and the EC50 was in the range of 100 to 500 nM.

For the compound `O=C(Cc1cc(F)cc(F)c1)Nn1nc(Cl)c2ccccc2c1=O` [Example 19, N-(4-chloro-1-oxophthalazin-2(1H)-yl)-2-(3,5-difluorophenyl)acetamide], the Emax is 45% and the EC50 lay in the range of 1000 to 10000 nM.

On to `Cc1ccc(-c2nn(NC(=O)CC34CC5CC(CC(C5)C3)C4)c(=O)c3ccccc23)cc1` [Example 138, 2-(adamantan-1-yl)-N-[4-(4-methylphenyl)-1-oxophthalazin-2(1H)-yl]acetamide], for which the Emax came out at 129% and the EC50 is < 100 nM.

With `CN(C)C(=O)c1ccc(-c2nn(NC(=O)CC3CC4CCC3C4)c(=O)c3ccccc23)cc1` (racemic) [Example 81, (±)-4-(3-{[exo-bicyclo[2.2.1]hept-2-ylacetyl]amino}-4-oxo-3,4-dihydrophthalazin-1-yl)-N,N-dimethylbenzamide], the Emax came to 50% and the EC50 is > 10000 nM.

Take `Cc1ccc(-c2nn(NC(=O)Cc3cc(F)cc(F)c3)c(=O)c3ccccc23)c(C)c1` [Example 162, 2-(3,5-difluorophenyl)-N-[4-(2,4-dimethylphenyl)-1-oxophthalazin-2(1H)-yl]acetamide]: the Emax is 164% and the EC50 was 100 to 500 nM.

For the compound `CS(=O)(=O)c1ccc(CC(=O)Nn2nc(-c3ccc(Cl)cc3)c3ccccc3c2=O)cc1` [Example 111, N-[4-(4-chlorophenyl)-1-oxophthalazin-2(1H)-yl]-2-[4-(methylsulfonyl)phenyl]acetamide], the Emax was found to be 25% and the EC50 is > 10000 nM.

In the case of `O=C(CC1CC2CCC1C2)Nn1nc(C(F)(F)F)c2ccccc2c1=O` (racemic) [Example 58, (±)-2-(exo-bicyclo[2.2.1]heptan-2-yl)-N-[1-oxo-4-(trifluoromethyl)phthalazin-2(1H)-yl]acetamide], the Emax stood at 137% and the EC50 is 100 to 500 nM.

Regarding `Cc1ccc(C)c(-c2nn(NC(=O)CC34CC5CC(CC(C5)C3)C4)c(=O)c3ccccc23)c1` [Example 156, 2-(adamantan-1-yl)-N-[4-(2,5-dimethylphenyl)-1-oxophthalazin-2(1H)-yl]acetamide], the Emax was determined as 177% and the EC50 lay within 100 to 500 nM.
